Like-named read-outs stand apart in the source and are kept apart here. Where only a bound is given, the exact number is not on record here.

The conditions of data set [1]: rat, in vivo.
Data set [2] can be described thus: Toxicokinetics in plasma after a single gavage administration. The conditions noted are these: male rats.
The conditions of data set [3]: male, Sprague Dawley, rat, in vivo, iv, 2.25 mg/kg.
The test system of another data set is rats. The conditions noted are these: ref Hirata-Koizumi et al., 2008b, cited from earlier work.
The conditions of data set [4]: male, Sprague Dawley, rat, in vivo.
The conditions of data set [5]: rat, in vivo, 10 mg/kg; cited from earlier work.
Setting [6] is: male, Sprague Dawley, po, 30 mg/kg.
[7] abbreviates: male, Sprague Dawley, po, 300 mg/kg.
Where [8] appears, read: male, Sprague Dawley, 300 mg/kg.

Take `Cc1cc(-n2nc3ccc(Cl)cc3n2)c(O)c(C(C)(C)C)c1` [Bumetrizole, 2-(5-chloro-2H-1,2,3-benzotriazol-2-yl)-6-(1,1-dimethylethyl)-4-methylphenol]: in data set [1] (male, Sprague Dawley, 30 mg/kg), the “time points where plasma concentrations were below LOD” value is given as 0.0333 h. In data set [1] (setting [6]), the area under the curve (AUC) stood at 21000 ± 5300 ng·h/mL, the peak concentration (Cmax) was 2020 ± 490 ng/mL, the “Half-life (beta half-life)” value amounted to 48.4 ± 116 h and the Tmax amounted to 3.08 ± 0.77 h. For the same compound, in data set [1] (setting [7]), the AUC was found to be 41600 ± 11600 ng·h/mL, the Cmax stood at 2450 ± 710 ng/mL, the “Half-life (beta half-life)” value was determined as 37.5 ± 401 h and the time to peak (Tmax) is listed as 5.06 ± 1.24 h.
On to `Cc1ccc(O)c(-n2nc3ccccc3n2)c1` [Drometrizole, 2-(2H-Benzotriazol-2-yl)-4-methylphenol], for which the “Half-life (beta half-life)” value in data set [1] (male, Sprague Dawley, 30 mg/kg) was 1120 ± 5780 h. Besides, in data set [1] (setting [6]), the maximum concentration (Cmax) was determined as 138 ± 1900 ng/mL and the Tmax worked out at 0.0196 ± 24.6 h. Also, in data set [1] (setting [7]), the AUC turned out to be 29800 ± 14700 ng·h/mL, the peak concentration (Cmax) was found to be 358 ± 26 ng/mL, the “Half-life (beta half-life)” value is reported as 103 ± 72 h and the “plasma elimination half-life (beta half-life)” value is 103 to 1120 h.
As for `CC(C)(C)CC(C)(C)c1ccc(O)c(-n2nc3ccccc3n2)c1` [Octrizole, 2-(2H-Benzotriazol-2-yl)-4-(1,1,3,3-tetramethylbutyl)phenol], in data set [1] (setting [6]), the AUC came out at 5980 ± 1950 ng·h/mL, the maximum concentration (Cmax) amounted to 561 ± 170 ng/mL, the “Half-life (beta half-life)” value came out at 56.8 ± 233 h and the time of peak concentration (Tmax) is given as 3.71 ± 1.08 h. In data set [1] (setting [7]), the AUC was determined as 30000 ± 7400 ng·h/mL, the Cmax worked out at 3590 ± 850 ng/mL and the “Half-life (beta half-life)” value is recorded as 21.4 ± 18.2 h. The “time points where plasma concentrations were below LOD” value in data set [2] (single gavage 300 mg/kg group) is 0.0333 h. In addition, in data set [3], the exposure (AUC) worked out at 3510 ± 440 ng·h/mL, the Cmax is 20600 ± 7800 ng/mL and the “Half-life (gamma half-life)” value was determined as 15.4 ± 2.4 h.
Consider `CC(C)(C)c1ccc(O)c(-n2nc3ccccc3n2)c1` [ditBu-BZT, 2-(2H-benzotriazol-2-yl)-4-tert-butylphenol], for which, in the data set with rats (gavage 0.1–12.5 mg/kg for 13 and 52 weeks), the toxicity finding result is reported as “enlarged livers accompanied by histopathological changes”. Also, in the data set on rats (highest dose), the “toxicity finding at the highest dose” value was “Increased relative organ weights (e.g., brain and testes) and hematological effects”.
In data set [4] (300 mg/kg), `CCC(C)(C)c1cc(-n2nc3ccccc3n2)c(O)c(C(C)(C)CC)c1` [ditPe-BZT, 2-(2H-Benzotriazol-2-yl)-4,6-bis(1,1-dimethylpropyl)phenol] displayed an Oral bioavailability of 5.53%. Besides, the time of peak concentration (Tmax) in data set [1] (setting [6]) was determined as 2.96 ± 1.10 h. Besides, in data set [1] (setting [7]), the “Half-life (beta half-life)” value is 17.1 ± 53.3 h.
As to `CC(C)(C)c1ccc(O)c(-n2nc3ccccc3n2)c1` [tBu-BZT, 2-(2H-Benzotriazol-2-yl)-4-tert-butylphenol], the “increase in AUC with a 10-fold increase in the dose” value in data set [2] (gavage 30 to 300 mg/kg) is “dose-proportional”.
For the compound `CC(C)(C)c1cc(CCC(=O)OCCCCCCOC(=O)CCc2cc(-n3nc4ccccc4n3)c(O)c(C(C)(C)C)c2)cc(-n2nc3ccccc3n2)c1O` [tBuPrHexEst-BZT, 3-(2H-benzotriazol-2-yl)-5-(1,1-dimethylethyl)-4-hydroxybenzenepropanoic acid, 1,6-hexanediyl ester], in data set [5], the “Tmax (time at which Cmax was achieved)” value was 1 to 2 h, the apparent half-life was ~ 12 h and the “maximum blood concentration (Cmax)” value is under 0.13 µg/g.
On to `COC(=O)CCc1cc(-n2nc3ccccc3n2)c(O)c(C(C)(C)C)c1` [tBuPrMeEst-BZT, 3-(2H-benzotriazol-2-yl)-5-(1,1-dimethylethyl)-4-hydroxybenzenepropanoic acid, methyl ester], for which, in data set [5], the “Tmax (time at which Cmax was achieved)” value was 1 to 2 h and the “maximum blood concentration (Cmax)” value is under 2 µg/g.
Take `CCCCCCCCOC(=O)CCc1cc(-n2nc3ccccc3n2)c(O)c(C(C)(C)C)c1` [tBuPrOcEst-BZT, 3-(2H-Benzotriazol-2-yl)-5-(1,1-dimethylethyl)-4-hydroxybenzenepropanoic acid, octyl ester]: the Oral bioavailability in data set [4] (30 mg/kg) is listed as 23.0%. The Oral bioavailability in data set [4] (300 mg/kg) is 16.0%. For the same compound, in data set [1] (male, Sprague Dawley, 30 mg/kg), the AUC was found to be 42300 ± 11500 ng·h/mL, the Cmax was 12800 ± 3100 ng/mL, the “Half-life (beta half-life)” value is 9.53 ± 1.73 h and the time to peak (Tmax) is listed as 1.07 ± 0.30 h. Also, in data set [1] (setting [8]), the AUC was 294000 ± 85000 ng·h/mL, the highest concentration (Cmax) is recorded as 47800 ± 13500 ng/mL, the “Half-life (beta half-life)” value turned out to be 13.6 ± 6.4 h and the Tmax came to 1.91 ± 0.56 h. For the same compound, in data set [1] (setting [7]), the highest concentration (Cmax) was in the range of 12800 to 47800 ng/mL, the Tmax lay within 1.07 to 1.91 h and the “plasma elimination half-life (beta half-life)” value lay in the range of 9.53 to 13.6 h. Also, the “concentration of the parent in plasma” value in data set [1] (po) is recorded as “mostly below LOD”. Besides, in data set [3], the AUC came out at 13800 ± 300 ng·h/mL, the Cmax was found to be 22400 ± 900 ng/mL and the “Half-life (gamma half-life)” value turned out to be 19.2 ± 1.1 h.

What is called AUC is the area under the concentration-time curve, a measure of exposure. In general, Cmax refers to the highest concentration seen after dosing. Broadly, the Tmax is the time at which the peak concentration occurs.

Values taken from PMC8883597 (Xenobiotica; the fate of foreign compounds in biological …, 2021).
